{"source": "ChEMBL document CHEMBL1141999", "about": "“Biaryls and heterobiaryls as alpha-glucosidase and protein tyrosine phosphatase inhibitors” (Bioorg Med Chem Lett, 2005)", "key": {"[1]": {"biological_target": "T1, Neutral alpha-glucosidase AB (Homo sapiens) (UniProt Q14697)", "T1 sequence (whole entry)": "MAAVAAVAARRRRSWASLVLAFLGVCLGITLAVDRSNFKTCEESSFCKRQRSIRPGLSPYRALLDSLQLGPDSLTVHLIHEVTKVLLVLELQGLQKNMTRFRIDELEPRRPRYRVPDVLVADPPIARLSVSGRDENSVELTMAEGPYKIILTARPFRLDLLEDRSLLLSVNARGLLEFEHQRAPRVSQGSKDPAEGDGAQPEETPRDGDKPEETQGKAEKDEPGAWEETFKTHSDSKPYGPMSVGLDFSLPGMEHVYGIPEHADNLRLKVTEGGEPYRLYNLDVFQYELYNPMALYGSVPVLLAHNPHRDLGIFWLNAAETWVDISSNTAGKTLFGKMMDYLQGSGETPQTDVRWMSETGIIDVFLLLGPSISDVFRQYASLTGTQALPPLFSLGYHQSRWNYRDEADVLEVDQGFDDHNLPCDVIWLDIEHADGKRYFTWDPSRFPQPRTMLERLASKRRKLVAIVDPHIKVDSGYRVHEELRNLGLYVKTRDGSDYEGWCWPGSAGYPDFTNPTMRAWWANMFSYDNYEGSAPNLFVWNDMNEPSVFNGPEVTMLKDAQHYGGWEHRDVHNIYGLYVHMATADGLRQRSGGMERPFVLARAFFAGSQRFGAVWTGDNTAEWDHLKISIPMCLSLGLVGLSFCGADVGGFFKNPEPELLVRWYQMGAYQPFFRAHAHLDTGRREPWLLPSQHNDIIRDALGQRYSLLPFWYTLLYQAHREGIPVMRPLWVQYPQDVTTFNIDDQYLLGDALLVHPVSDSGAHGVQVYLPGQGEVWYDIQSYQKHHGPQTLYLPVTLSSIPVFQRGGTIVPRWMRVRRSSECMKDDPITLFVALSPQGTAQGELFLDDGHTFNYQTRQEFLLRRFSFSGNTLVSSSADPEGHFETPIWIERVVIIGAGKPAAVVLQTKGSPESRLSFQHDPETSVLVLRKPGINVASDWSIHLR", "assay": "Percentage inhibition (100 uM) against Alpha glucosidase"}, "[2]": {"assay": "Percentage inhibition (100 uM) against protein tyrosine […]"}}, "data": [{"molecule": "N#Cc1c(N2CCc3ccccc3C2)cc(-c2ccc(Br)cc2)oc1=O", "values": [{"measurement": "inhibition", "setting": "[1]", "result": 59.7, "unit": "%"}, {"measurement": "inhibition", "setting": "[2]", "result": 25.1, "unit": "%"}]}, {"molecule": "N#Cc1c(N2CCc3ccccc3C2)cc(-c2ccc(Cl)cc2)c2c1CCCCCC2", "values": [{"measurement": "inhibition", "setting": "[1]", "result": 28.8, "unit": "%"}, {"measurement": "inhibition", "setting": "[2]", "result": 24.2, "unit": "%"}]}, {"molecule": "N#Cc1c(N2CCc3ccccc3C2)cc(-c2ccc(Cl)cc2)oc1=O", "values": [{"measurement": "inhibition", "setting": "[1]", "result": 51.9, "unit": "%"}, {"measurement": "inhibition", "setting": "[2]", "result": 18.2, "unit": "%"}]}, {"molecule": "N#Cc1c(N2CCc3ccccc3C2)cc(-c2ccc(Cl)cc2)c2c1CCCC2", "values": [{"measurement": "inhibition", "setting": "[1]", "result": 20.7, "unit": "%"}, {"measurement": "inhibition", "setting": "[2]", "result": 23.2, "unit": "%"}]}, {"molecule": "N#Cc1c(N2CCc3ccccc3C2)cc(-c2ccc(Cl)cc2)c2c1CCCCC2", "values": [{"measurement": "inhibition", "setting": "[1]", "result": 47.4, "unit": "%"}, {"measurement": "inhibition", "setting": "[2]", "result": 42.8, "unit": "%"}]}, {"molecule": "N#Cc1c(-c2ccc(C(F)(F)F)cc2)cc(-c2ccc3ccc4cccc5ccc2c3c45)cc1N1CCCC1", "values": [{"measurement": "inhibition", "setting": "[1]", "result": 93.8, "unit": "%"}, {"measurement": "inhibition", "setting": "[2]", "result": 12.5, "unit": "%"}]}, {"molecule": "N#Cc1c(N2CCc3ccccc3C2)cc(-c2cccc3ccccc23)c2c1-c1ccccc1SC2", "values": [{"measurement": "inhibition", "setting": "[1]", "result": 98.7, "unit": "%"}, {"measurement": "inhibition", "setting": "[2]", "result": 41.9, "unit": "%"}]}, {"molecule": "N#Cc1c(N2CCc3ccccc3C2)cc(-c2cccc3ccccc23)c2c1-c1ccccc1CC2", "values": [{"measurement": "inhibition", "setting": "[1]", "result": 94.8, "unit": "%"}, {"measurement": "inhibition", "setting": "[2]", "result": 51.8, "unit": "%"}]}, {"molecule": "N#Cc1c(N2CCc3ccccc3C2)cc(-c2cccc3ccccc23)c2c1CCSC2", "values": [{"measurement": "inhibition", "setting": "[1]", "result": 96.1, "unit": "%"}, {"measurement": "inhibition", "setting": "[2]", "result": 26.7, "unit": "%"}]}, {"molecule": "N#Cc1c(N2CCc3ccccc3C2)cc(-c2cccc3ccccc23)c2c1CCCC2", "values": [{"measurement": "inhibition", "setting": "[1]", "result": 72.2, "unit": "%"}, {"measurement": "inhibition", "setting": "[2]", "result": 14.8, "unit": "%"}]}, {"molecule": "SODIUM ORTHOVANAD", "values": [{"measurement": "inhibition", "setting": "[2]", "result": 77.6, "unit": "%"}]}, {"molecule": "C[C@H]1O[C@H](O[C@H]2[C@H](O)[C@@H](O)[C@@H](O[C@H]3[C@H](O)[C@@H](O)C(O)O[C@@H]3CO)O[C@@H]2CO)[C@H](O)[C@@H](O)[C@@H]1N[C@H]1C=C(CO)[C@@H](O)[C@H](O)[C@H]1O", "note": "(some centres not stated)", "values": [{"measurement": "inhibition", "setting": "[1]", "result": 90, "unit": "%"}]}]}
